The test system of data set [1] is BALBc mice. In words: Ear pinnae thickness in mice treated with imiquimod cream with or without HSP70 cream. It counts as in vivo. The note with it: Group 1, imiquimod 5% cream only, 3.125 mg daily dose. How it is done:
(§1) The effect of HSP was tested on mice (BALBc mice, male 10-12 weeks old) The mice were divided in 5 groups of eight mice each: […] Group 2: mice were treated for 6 days as group 1. […] Group 3: mice were treated for 6 days as group 2, except for the cream comprising 250 μg/ml HSP (100 μg HSP per dose) Group 4: mice were treated as group 2 except for the carrier cream comprising no Hsp70. (mice were treated for six days, twice a day, once four hours before treatment with imiquimod, once four hours after treatment with imiquimod. Group 5: control group, no cream application. Day 1: initial evaluation for visible signs of psoriasis. […] Animal backs were shaved and photographs were taken. Thickness of both ear pinnae were measured. Cream application was performed creams. All animals were assessed and examined once daily for behavioural changes and adverse effects. Ear pinnae measurements are performed daily. Skin changes Study groups on ordinal and continuous outcomes were compared using the Kruskal-Wallis test with a […] adjustment for pairwise group comparisons for an overall statistical significance criteria of 0.05 for each outcome.

The next data set relates to patients. The note with it: cited from earlier work.
The test system of data set [2] is BALBc mice. In words: Cumulative PASI score (erythema, scales, thickness) of imiquimod-treated mice. It counts as in vivo. The conditions noted are these: day 7; maximum of 12 points; Group 1, imiquimod only. How it is done:
as §1, with “taken.” for “taken. Thickness of both ear pinnae were measured. Cream application was performed creams. All animals”, “by the PASI score. On day 7, photographs of all animals (backs) were taken to document progression of the disease.” for “and examined once daily for behavioural changes and adverse effects. Ear pinnae measurements are performed daily. Skin changes”

Data set [3] relates to BALBc mice. In words: Visual appearance (scaling) of the backs of the mice, FIG. 1. Type of data set: in vivo. The conditions noted are these: after 6 days of treatment.
Protocol: (§2) Group 1: mice were treated for 6 days on shaved back and right ear with one daily application of imiquimod 5% cream to the skin (3.125 mg daily dose)
(§3) Group 2: mice were treated for 6 days as group 1. In addition the part of the skin to which imiquimod was applied was treated twice daily with the cream comprising 50 μg/ml HSP (20 μg HSP per dose). Each day, the cream comprising HSP70 was applied to the skin in a 1 mm layer, 4 hours before application of the imiquimod, and again 4 hours after treatment with imiquimod.
From left to right: Group 2 (20 μg HSP), Group 3 (100 μg HSP), Group 4 (carrier cream only) and Group 1 (imiquimod only)
Data set [4] concerns BALBc mice. In words: Histology of back skin samples: average epidermal thickness of the treated skin. It counts as in vivo. The note with it: day 7, Group 1, imiquimod only.
Protocol: as §2, §3
Day 7: The animals were euthanized and skin tissue and blood was processed. Inflammatory markers were measured with Q-PCR (skin samples). Skin samples were histologically examined. […]

Where two headings read alike, the source gives them in different places.

Consider `CC(C)Cn1cnc2c(N)nc3ccccc3c21` [imiquimod], for which the ear thickness with BALBc mice [1] (Day 1) was found to be 0.21 mm. In the data set with BALBc mice [1] (Day 5), the ear thickness was found to be 0.28 mm. In the data set with BALBc mice [1] (Day 6), this compound showed an ear thickness of 0.37 mm. In the data set with BALBc mice [1] (Day 7), this compound returned an ear thickness of 0.40 mm. In the data set with patients (in females), the “remote site skin reaction: edema” value is 1%, the “remote site skin reaction: erythema” value is listed as 3% and the “remote site skin reaction: ulceration” value was 2%. In the data set with patients (in males), the “remote site skin reaction: edema” value is 1%, the “remote site skin reaction: erosion” value is recorded as 2%, the “remote site skin reaction: erythema” value is given as 1% and the “remote site skin reaction: induration” value is reported as 1%. Besides, the “remote site skin reaction: scaling/excoriation/flaking” value in the data set with patients (in males) is recorded as 1%. For the same compound, in the data set with patients (in vivo), the “remote site reactions: bleeding, burning, itching, pain, dryness, scabbing, crusting, redness, hardening of the skin, tenderness, tinea cruris” value is “more than 1 % of patients”. The “cumulative PASI score” value in the data set with BALBc mice [2] stood at 6.5. For the same compound, the “scaling of the backs of the mice” value with BALBc mice [3] is listed as “severely scaled”. Also, the “average epidermal thickness of the treated skin” value in the data set on BALBc mice [4] is recorded as 58 μm.

These data come from patent US11052127B2, “HSP for use in treatment for imiquimod related side effects” (Alfa Biogene International B.V., priority 2012, dated 2021).
